Values quoted from earlier work as cited in the PKSmart pharmacokinetics tables (Seal et al. 2025).

What was measured:
[1] = Lombardo et al. 2013, J Clin Pharmacol 53:178, doi 10.1177/0091270012440282; settings: for Vd / clearance: in vivo, iv; for fraction unbound: plasma
[2] = Lombardo, Berellini, Obach 2018, Drug Metab Dispos 46:1466, doi 10.1124/dmd.118.082966; settings: human; for MRT / Vd / clearance / half-life: in vivo, iv; for fraction unbound: plasma

Structure (SMILES)	Vd ([1]; dog)	fraction unbound ([1]; dog)	Vd ([1]; rat)	fraction unbound ([1]; rat)	MRT [2]	Vd [2]	clearance ([1]; rat)	clearance [2]	half-life [2]	clearance ([1]; dog)	fraction unbound [2]	Vd ([1]; monkey)	clearance ([1]; monkey)	fraction unbound ([1]; monkey)
CC(C)(C)NCC(O)c1ccc(O)c(CO)c1 (stereo unspecified)	3.9 L/kg	0.05	30 L/kg	0.05	4.1 h	1.9 L/kg								
Nc1ccn([C@@H]2CO[C@H](CO)O2)c(=O)n1			1.42 L/kg		6.9 h	1 L/kg	23 mL/min/kg	2.4 mL/min/kg	82 h					
CCCC1O[C@@H]2C[C@H]3[C@@H]4CC=C5CC(=O)C=C[C@]5(C)[C@H]4[C@@H](O)C[C@]3(C)[C@]2(C(=O)CO)O1 (stereo partly specified)			29.2 L/kg	0.039	3.2 h	3.9 L/kg	72 mL/min/kg	20 mL/min/kg	2.8 h					
COc1cc2c(c(OC)c1OC)-c1ccc(OC)c(=O)cc1[C@@H](NC(C)=O)CC2			31.4 L/kg		49 h	6.1 L/kg	34.3 mL/min/kg	2.1 mL/min/kg	58 h					
CNC(=O)c1cccc2c(Nc3ccc(NS(C)(=O)=O)cc3OC)c3cccc(C)c3nc12	1 L/kg	0.0038	2 L/kg	0.011	1.9 h	0.3 L/kg	66 mL/min/kg	2.6 mL/min/kg	2.4 h	3.7 mL/min/kg	0.0011			
CCCCN1CCCCC1C(=O)Nc1c(C)cccc1C (stereo unspecified)	0.7 L/kg	0.11	2.4 L/kg	0.23	2.12 h	0.665 L/kg	76 mL/min/kg	6.5 mL/min/kg	1.95 h	32 mL/min/kg	0.043	0.66 L/kg	10 mL/min/kg	0.051
CON=C(C(=O)NC1C(=O)N2C(C(=O)O)=C(COC(N)=O)CS[C@H]12)c1ccco1 (stereo partly specified)	1.5 L/kg				1.1 h	0.15 L/kg		2.2 mL/min/kg	1.1 h	5 mL/min/kg				
OC(Cn1cncn1)(Cn1cncn1)c1ccc(F)cc1F	0.7 L/kg		0.97 L/kg	0.9	40 h	0.75 L/kg	4.2 mL/min/kg	0.31 mL/min/kg	30 h	0.65 mL/min/kg				
Cc1cn([C@H]2C[C@H](N=[N+]=[N-])[C@@H](CO)O2)c(=O)[nH]c1=O	1 L/kg	0.827			1.2 h	1.8 L/kg			1.3 h	14 mL/min/kg	0.8			
CCOC(=O)c1ncn2c1CN(C)C(=O)c1cc(F)ccc1-2	1 L/kg	0.685	1.3 L/kg		1 h		147 mL/min/kg	16 mL/min/kg	0.78 h	16 mL/min/kg				
Cc1ccc(C(=O)c2cc(O)c(O)c([N+](=O)[O-])c2)cc1	0.16 L/kg		0.21 L/kg		1.1 h	0.12 L/kg	8.8 mL/min/kg	1.9 mL/min/kg	1.1 h	1.9 mL/min/kg	0.0012			
COc1cccc2c1C(=O)c1c(O)c3c(c(O)c1C2=O)C[C@@](O)(C(=O)CO)C[C@@H]3O[C@H]1C[C@H](N)[C@@H](O)[C@H](C)O1	71.9 L/kg	0.808	0.17 L/kg		38 h	45 L/kg	25.9 mL/min/kg	20 mL/min/kg	36 h					
COc1nc(N)nc2c1ncn2[C@@H]1O[C@H](CO)[C@@H](O)[C@@H]1O					1 h	4.9 L/kg		81 mL/min/kg	0.5 h			1.3 L/kg	42 mL/min/kg	
Nc1ccn([C@H]2CC[C@@H](CO)O2)c(=O)n1			1 L/kg	0.85			11.2 mL/min/kg				0.96	0.98 L/kg	10.3 mL/min/kg	
C[C@@H](CN1CC(=O)NC(=O)C1)N1CC(=O)NC(=O)C1	0.72 L/kg				3 h	0.55 L/kg		3.1 mL/min/kg	2.5 h	11.5 mL/min/kg				
O=P1(N(CCCl)CCCl)NCCCO1 (stereo unspecified)	0.7 L/kg		0.67 L/kg		11 h	0.73 L/kg	11.1 mL/min/kg	1.1 mL/min/kg	8 h	20 mL/min/kg				
COCCOC(=O)C1=C(C)NC(C)=C(C(=O)OC(C)C)C1c1cccc([N+](=O)[O-])c1 (stereo unspecified)	3 L/kg	0.03	5.5 L/kg	0.03	1.2 h	1.1 L/kg	19.6 mL/min/kg		1.3 h	18 mL/min/kg		3.62 L/kg	33 mL/min/kg	0.095
CC(C)NCC(O)COc1ccc(CCOCC2CC2)cc1 (stereo unspecified)	8.2 L/kg	0.47	12 L/kg	0.54	24 h	4.8 L/kg	154 mL/min/kg	3.4 mL/min/kg	17 h	20 mL/min/kg				
COC(=O)C1=C(C)NC(C)=C(C(=O)OCC(C)C)C1c1ccccc1[N+](=O)[O-] (stereo unspecified)	4.1 L/kg	0.028	0.89 L/kg		6.5 h	5.5 L/kg	45.8 mL/min/kg	15 mL/min/kg	11 h	37.2 mL/min/kg				

Structure (SMILES)	Vd ([1]; dog)	fraction unbound ([1]; dog)	Vd ([1]; rat)	fraction unbound ([1]; rat)	MRT [2]	Vd [2]	clearance ([1]; rat)	clearance [2]	half-life [2]	clearance ([1]; dog)	fraction unbound [2]	Vd ([1]; monkey)	clearance ([1]; monkey)	fraction unbound ([1]; monkey)
c1ccc2c(c1)OCC(C1=NCCN1)O2 (stereo unspecified)			3.1 L/kg		5.5 h	3.3 L/kg	71.2 mL/min/kg	10 mL/min/kg	4.2 h					
CC(C)(C)NC(=O)C1C[C@@H]2CCCC[C@@H]2CN1C[C@@H](O)[C@H](Cc1ccccc1)NC(=O)C(CC(N)=O)NC(=O)c1ccc2ccccc2n1 (stereo partly specified)			3 L/kg	0.007	4.6 h	3.6 L/kg			13 h					
CC(=O)CCCCn1c(=O)c2c(ncn2C)n(C)c1=O	1.01 L/kg	0.425	0.1 L/kg	0.76	0.77 h	1.8 L/kg	7.28 mL/min/kg	39 mL/min/kg	1.2 h	37 mL/min/kg	0.51			
CCC(C)C(=O)O[C@H]1C[C@H](O)C=C2C=C[C@H](C)[C@H](CC[C@@H](O)C[C@@H](O)CC(=O)O)[C@H]21 (stereo partly specified)			0.19 L/kg	0.33		0.46 L/kg	36 mL/min/kg	14 mL/min/kg	0.78 h					
CCCCCNC(=O)c1coc([C@H]2[C@@H](Cc3ccccc3CCC(=O)O)[C@@H]3CC[C@H]2O3)n1	11 L/kg		2.8 L/kg		11 h	4.4 L/kg	87.5 mL/min/kg	6.4 mL/min/kg	22 h	65 mL/min/kg		5.5 L/kg	19.1 mL/min/kg	
NCCC(O)C(=O)N[C@@H]1C[C@H](N)[C@@H](O[C@H]2O[C@H](CN)[C@@H](O)[C@H](O)[C@H]2O)[C@H](O)[C@H]1O[C@H]1O[C@H](CO)[C@@H](O)[C@H](N)[C@H]1O (stereo partly specified)	0.2 L/kg		0.16 L/kg		2.4 h	0.16 L/kg	5.4 mL/min/kg	1.1 mL/min/kg	2.4 h	3.5 mL/min/kg	0.88			
CON=C(C(=O)NC1C(=O)N2C(C(=O)O)=C(CSc3nc(C)c(CC(=O)O)s3)CS[C@H]12)c1csc(N)n1 (stereo partly specified)	0.26 L/kg	0.243	0.18 L/kg	0.0097	1.5 h	0.054 L/kg	1.1 mL/min/kg	0.61 mL/min/kg	4.2 h	4.1 mL/min/kg	0.18	0.15 L/kg	1.2 mL/min/kg	1
CO[C@@]1(NC(=O)CSCC#N)C(=O)N2C(C(=O)O)=C(CSc3nnnn3C)CS[C@@H]21	0.9 L/kg	0.75	0.35 L/kg	0.55	1.5 h	0.13 L/kg	25.3 mL/min/kg	1.5 mL/min/kg	1.5 h	8 mL/min/kg	0.15	0.3 L/kg	3.3 mL/min/kg	0.34
C[C@]12CC[C@@H]3c4ccc(O)cc4CC[C@H]3[C@@H]1CC[C@@H]2O			5.9 L/kg	0.053	0.7 h	1.2 L/kg	69 mL/min/kg	30 mL/min/kg	1.7 h					
Cc1ncc2n1-c1ccc(Cl)cc1C(c1ccccc1F)=NC2	1.1 L/kg	0.0223	2.6 L/kg	0.04	3.5 h	1.1 L/kg	90 mL/min/kg	5.3 mL/min/kg	3.1 h	35.2 mL/min/kg		3 L/kg	22.3 mL/min/kg	0.146
CCn1cc(C(=O)O)c(=O)c2cc(F)c(N3CCNCC3)nc21			1.8 L/kg		6.2 h	2 L/kg	42.7 mL/min/kg	5.4 mL/min/kg	5.1 h		0.8			
COCCCOc1ccnc(C[S+](O)c2nc3ccccc3[n-]2)c1C (stereo unspecified)	2.62 L/kg	0.0864	1.04 L/kg	0.073	0.92 h	0.22 L/kg	82.4 mL/min/kg	4 mL/min/kg	1 h	86 mL/min/kg				
CO[C@@]1(NC(=O)C(C(=O)O)c2ccc(O)cc2)C(=O)N2C(C(=O)O)=C(CSc3nnnn3C)CO[C@@H]21 (stereo partly specified)	0.2 L/kg	0.66	0.25 L/kg	1	3.9 h	0.17 L/kg	9.1 mL/min/kg	0.72 mL/min/kg	2.9 h	2.2 mL/min/kg	0.39	0.19 L/kg	2.3 mL/min/kg	1
CC(=O)[C@]1(O)Cc2c(O)c3c(c(O)c2[C@@H](O[C@H]2C[C@H](N)[C@H](O)[C@H](C)O2)C1)C(=O)c1ccccc1C3=O	34.5 L/kg		36.5 L/kg		26 h	38 L/kg	78.5 mL/min/kg	24 mL/min/kg	16 h		0.076			
CC1(C)S[C@@H]2C(NC(=O)C(N)c3ccc(O)cc3)C(=O)N2C1C(=O)O (stereo partly specified)	0.31 L/kg	0.66	0.5 L/kg		1.3 h	0.25 L/kg	17 mL/min/kg	3.3 mL/min/kg	1.1 h	3.4 mL/min/kg				
O=C1CN=C(c2ccccc2Cl)c2cc([N+](=O)[O-])ccc2N1	2.49 L/kg	0.18	3.1 L/kg		55 h	2.9 L/kg	70.5 mL/min/kg	0.88 mL/min/kg	38 h	24 mL/min/kg		6.8 L/kg	14.3 mL/min/kg	0.121
CC(C)c1cccc(C(C)C)c1O	2.46 L/kg	0.02	1.37 L/kg	0.03	2.2 h	4.7 L/kg	107 mL/min/kg	36 mL/min/kg	3.2 h	39.8 mL/min/kg	0.016			
NC(=O)c1ncn([C@@H]2O[C@H](CO)[C@@H](O)[C@H]2O)n1					45 h		43 mL/min/kg	5.2 mL/min/kg	45 h				3.7 mL/min/kg	0.497
